The text below walks through data of US20260242320A1, “USE OF CANNABIDIOL DERIVATIVE IN PREPARATION OF MEDICAMENT” (priority 2023, published 2026).

In series [1] the test system is morphine-dependent mice. The series is described as follows: Naloxone-precipitated morphine withdrawal jumps. Type of series: in vivo. As to conditions: 2 μg/kg, 20 μg/kg, 0.2 mg/kg i.p. As to the method: Mice were intraperitoneally injected with an escalating dose of morphine three times daily for 3 days (5, 20, and 40 mg/kg) to induce addiction. On the fourth day, mice were given morphine (40 mg/kg) or vehicle (5 mL/kg). […] The withdrawal was precipitated by naloxone. Each mouse was placed into a transparent plastic box immediately, and the number of jumps was recorded for 15 min.

The subject of series [2] is LPS-induced proinflammatory factor nitric oxide (NO) in immunocompetent BV-2 cells. The series is described as follows: NO assay: inhibition of LPS-induced NO overproduction in BV-2 cells. Type of series: cell-based. Particulars: Mus musculus; BV-2 cells, LPS 200 ng/mL, 24 h; read-out: Antineuroinflammatory activity (IC50 inhibiting LPS-induced NO). As to the method: BV-2 cells were seeded at a density of 5×10^4 cells per milliliter in 96-well plates. After 24 h incubation, the media was removed and changed to DMEM without FBS and penicillin-streptomycin. LPS (200 ng/mL) and different concentrations of compounds were added. After 24 h treatment, 100 μL of media was transferred to flat black 96-well micro fluor plates, and then, 10 μL of 0.05 mg/mL 2,3-diaminonaphthalene was added and incubated in the dark for 15 min. 5 μL of NaOH (3 M) was subsequently added to each well to quench the reaction. NO inhibition ratio was analyzed by a SYNERGY H1 Microplate Reader (BioTek Instruments, Carlsbad, CA, USA) with excitation at 360 nm and emission at 430 nm. The fluorescence value of the LPS-treated group was set as 100%.

Series [3] deals with LPS-induced IL-1β, TNF-α, IL-6, iNOS, IL-10 mRNA in BV-2 cells. In words: qRT-PCR of proinflammatory and M1/M2 marker mRNAs in LPS-treated BV-2 cells. As to conditions: BV-2 cells. Type of series: cell-based. As to the method:
Total RNA was extracted from cells or mouse brains using the RNeasy Mini Kit. Isolated RNA was reverse-transcribed into cDNA using an RT2 Easy First Strand cDNA Synthesis Kit following the manufacturer's protocols. PCR amplification was conducted using synthetic primers, SYBR Green, and a TOptical Real-Time qPCR Thermal Cycler (Analytik Jena, Thuringia, Germany). The data were analyzed by the […] method, and Rpl711 or Rpl27 was used as an internal control.
(In general: In qPCR the cycle at which signal appears reflects the starting amount.)

Series [4] in a line: Pharmacokinetic profiles in brain and plasma after oral administration. Type of series: in vivo, mice. As to conditions: male, BALB/c, mouse, 10 mg/kg p.o., read-out: B/P ratio.
Series [5] has as its target T1, CB1 Receptor (Homo sapiens, UniProt P21554).
T1 construct: expressed in transfected cells; host or cells: GloSensor 22-F HEK293 cells
In words: cAMP measurement, forskolin-induced cAMP accumulation, CB1. Type of series: cell-based. As to the method:
(§1) GloSensor 22-F HEK293 cells were transfected with plasmids encoding different receptors (CB1 and CB2). After 24 h, HEK293 cells were seeded at a density of 5×10^4 cells per well in 96-well plates and incubated for 8 h; then, the medium was removed, and 200 μL of serum-free DMEM medium containing 2% GloSensor cAMP substrate (Promega) was added. After 2 h incubation, the transfected cells were stimulated with different concentrations of ligands together with […]. The luminescence was recorded using a Multimode Plate Reader (En Vision, PerkinElmer).
On the technique in general: cAMP levels reflect the balance of adenylyl cyclase and phosphodiesterase activity.

Series [6] deals with morphine-treated mice. The series is described as follows: Morphine-induced behavioral sensitization. Type of series: in vivo. As to conditions: 0.2 mg/kg i.p., mice. As to the method:
Mice were placed into the test chamber (40×40×40 cm^3) for 60 min to habituate the chamber for three consecutive days. […] Locomotor activity was recorded daily for 60 min after the administration of drugs. Next, all the mice were subjected to a 7-day withdrawal period (days 8-14). Subsequently, mice were given morphine (5 mg/kg, i.p.), and locomotor activity was recorded to determine behavioral sensitization.

For series [7], the target named is T2, CB2 Receptor (Homo sapiens, UniProt P34972).
T2 construct: expressed in transfected cells; host or cells: GloSensor 22-F HEK293 cells
T2 sequence (P34972 whole entry): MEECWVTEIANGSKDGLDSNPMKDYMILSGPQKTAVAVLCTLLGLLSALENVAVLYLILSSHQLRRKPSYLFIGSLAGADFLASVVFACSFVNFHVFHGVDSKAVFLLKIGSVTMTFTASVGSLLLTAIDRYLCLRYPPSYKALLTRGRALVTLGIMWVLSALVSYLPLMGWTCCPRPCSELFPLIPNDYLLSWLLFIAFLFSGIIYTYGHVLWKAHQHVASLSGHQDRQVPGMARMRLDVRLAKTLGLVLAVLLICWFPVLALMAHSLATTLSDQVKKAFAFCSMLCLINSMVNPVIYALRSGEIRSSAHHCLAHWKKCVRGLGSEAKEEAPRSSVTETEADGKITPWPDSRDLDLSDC
In words: cAMP measurement, forskolin-induced cAMP accumulation, CB2. Type of series: cell-based. As to the method:
as §1

Series [8] concerns BV-2 cellular viability. In words: Cell viability / cytotoxicity by crystal violet staining. As to conditions: Mus musculus, BV-2, read-out: Cellular toxicity (IC50 inhibiting BV-2 cellular viability). Type of series: cell-based. As to the method: 100 μL of culture medium were transferred to a black 96-well plate for later use. Following removal of old culture medium, 100 μL of 4% paraformaldehyde was added for fixation. Fixation was performed for 5 minutes. Paraformaldehyde was then removed, and 100 μL of 0.05% crystal violet was added. The resultant mixture was incubated for 15 minutes, after which time crystal violet was removed and the mixture was slowly rinsed with water three times. Next, 150 μL of ethanol was added, and the mixture was incubated for 15 minutes. After incubation, the absorbance was measured at 540 nm using a spectrophotometer. Viability (%)=100× Fluorescence values of the dosing group/Fluorescence values of the blank group.
Cell viability was determined by crystal violet staining. Briefly, BV-2 cells were treated as indicated in the NO assay. The media was removed, and then 4% paraformaldehyde was added to fix the cells for 5 min. Cells were stained with 100 μL 0.05% crystal violet for 15 min and washed with water 2 times. Next, 150 μL of ethanol was added to each well, and the plate was incubated for 15 min at room temperature. Absorbance at 540 nm was measured using a SYNERGY H1 Microplate Reader.

Series [9] in a line: Pharmacokinetic profiles in brain and plasma after oral administration. Type of series: in vivo, mice. Particulars: 10 mg/kg p.o. As to the method:
Following administration, mice (BALB/c, male, 20-25 g) were sacrificed at 0.5, 1, 2, 3, and 4 h. The blood and brain tissue were collected and extracted with acetonitrile.

Series [10] is described as follows: Respiratory rate determination. Type of series: in vivo, mice. Particulars: CIAC001 20 mg/kg i.p.; THC 10 mg/kg i.p. As to the method: Mice were intraperitoneally injected with 20 mg/kg CIAC001 or 10 mg/kg THC once daily. After 1 h, the mice were anesthetized with isoflurane by a small animal anesthesia machine (R500IE, RWD Life Science Co) on day 2 and day 5. The respiratory rate of mice was recorded three times within 20 s. The weights of mice were recorded every day.

Series [11] in a line: Y-maze test of short-term memory. As to conditions: CIAC001 20 mg/kg i.p.; THC 10 mg/kg i.p. Type of series: in vivo, mice. As to the method: Mice were tested for short-term memory using a Y-maze task. Briefly, mice were placed into the Y-maze for 10 min once daily to habituate the apparatus for two consecutive days. After daily habituation, the mice were then treated with CIAC001 (20 mg/kg) or THC (10 mg/kg). On the 3rd day, mice were pretreated with CIAC001 or THC 45 min before the Y-maze test. Next, the “new arm” was blocked, and mice had 5 min to freely explore two arms (the “start arm” and the “old arm”, FIG. 8F). Mice were then removed from the Y-maze and placed into the cages for 2 min. During the test phase, mice were allowed to freely explore all three arms for 2 min, and the time spent in each arm was recorded and analyzed using the Noldus analyzing software. To eliminate olfactory interference, the Y-maze was wiped off with 70% alcohol after each test.

Molecules are shown by their SMILES. A value given as a limit tells only on which side of the number the result lay.

T1 sequence (P21554 whole entry): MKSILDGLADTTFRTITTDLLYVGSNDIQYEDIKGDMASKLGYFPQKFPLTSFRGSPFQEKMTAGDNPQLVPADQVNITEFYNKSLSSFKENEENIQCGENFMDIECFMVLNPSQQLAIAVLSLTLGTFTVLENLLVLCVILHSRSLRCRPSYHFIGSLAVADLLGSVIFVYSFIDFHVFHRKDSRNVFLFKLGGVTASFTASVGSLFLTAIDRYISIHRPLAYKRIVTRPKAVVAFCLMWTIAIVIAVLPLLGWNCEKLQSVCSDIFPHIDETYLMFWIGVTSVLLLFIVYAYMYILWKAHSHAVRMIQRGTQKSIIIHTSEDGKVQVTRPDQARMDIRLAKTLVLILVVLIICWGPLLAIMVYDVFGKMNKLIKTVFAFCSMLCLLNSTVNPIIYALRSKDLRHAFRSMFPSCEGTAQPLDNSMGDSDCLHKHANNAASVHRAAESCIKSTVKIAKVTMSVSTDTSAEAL

`C=C(C)[C@@H]1CCC(C)=C[C@H]1c1c(O)cc(CCCCC)cc1O` [CBD, (1′R,2′R)-5′-Methyl-4-pentyl-2′-(prop-1-en-2-yl)-1′,2′,3′,4′-tetra-hydro-[1,1′-biphenyl]-2,6-diol, reference compound]: in series [1], the naloxone-precipitated withdrawal jumps result is recorded as “failed to significantly alleviate”. For the same molecule, the IC50 in series [2] amounted to 12.3 ± 3.1 µM. Moreover, in series [3], the “LPS-induced overexpression of IL-1β mRNA” value is reported as “inhibited IL-1β overexpression only at 10 μM”, the “LPS-induced overexpression of IL-6 mRNA” value is recorded as “failed to inhibit” and the “LPS-induced overexpression of TNF-α mRNA” value is given as “failed to inhibit”. Also, the “LPS-induced IL-6 mRNA expression at 10 μM” value in series [3] (10 μM) was “augmented”. Further, in [4] (0.083 h), the Kp at 0.083 h turned out to be 0.864 ± 0.227. Moreover, the Kp at 0.25 h in [4] (0.25 h) stood at 0.358 ± 0.106. Besides, in series [5] (HEK293 transfected with CB1, forskolin-induced cAMP), the “CB1 Receptor ΔEmax” value came to 13.3 ± 0.1%. Further, the “CB1 receptor activity” value in [5] (cAMP assay) is recorded as “slight CB1/CB2 receptor activity”. Further, the “development of morphine-induced behavioral sensitization (induction period)” value in series [6] is listed as “not obvious”. Also, in series [7] (HEK293 transfected with CB2, forskolin-induced cAMP), the “CB2 Receptor ΔEmax” value is 30.2 ± 0.9%. Besides, the “CB2 receptor activity” value in [7] (cAMP assay) is given as “slight CB1/CB2 receptor activity”. In addition, the IC50 in series [8] was found to be 8.5 ± 0.9 µM. In series [9] (brain, mice), the AUC0→t is 66.7 ng·h/g, the “AUC0→∞” value is 85.0 ng·h/g, the MRT stood at 42 min and the Tmax is 30 min. This molecule yielded a t1/2 in series [9] (brain, mice) of 30 min. Besides, the Kp in series [9] (male, BALB/c, mouse, brain / plasma, oral, read-out: B/P ratios within the first 3 h after administration) was less than 1. Further, in [9] (male, BALB/c, mouse, brain / plasma, po, 0.5 h, read-out: B/P ratio), the Kp at 0.5 h came out at 0.93 ± 0.176. Further, the Kp at 1 h in [9] (male, BALB/c, mouse, brain / plasma, po, 1 h, read-out: B/P ratio) stood at 0.839 ± 0.144.

As to `CCCCCc1cc(O)c2c(c1)OC(C)(C)[C@@H]1CCC(C)=C[C@@H]21` [THC, reference compound], in [10], the respiratory rate entry is reported as “Respiratory depression was found”. In addition, the “time spent on the new arm (Y maze)” value in [11] is given as “spent significantly less time on the new arm”.

A word on the IC50: it is the concentration that inhibits the measured activity by half. As usually defined, the MRT is the average time that molecules of a dose stay in the body. The term Tmax denotes the time from dosing to the highest level.
